From patent US11712426B2, “Metallo-liothyronine” (Synthonics, Inc., priority 2018, dated 2023)

Experiments:
[1] = cited from earlier work; for pKa 1 / pKa 2 / pKa 3: Table 1; for pKa of the carboxylic acid(s): carboxylic acid / COOH group
[2] = plasma profiles of Na(HT3), Zn(HT3)2 and [Zn(T3)]n after oral administration (Example 11); format: in vivo, male Sprague Dawley rats; settings: for Cmax average / AUC average / FWHM average (Full Width at Half Maximum): PO capsule; for Cmax average: D = duodenum targeting (Eudragit L100-55) for Zn compounds, S = stomach (uncoated gel cap) for Na(HT3); for AUC average / FWHM average (Full Width at Half Maximum): D for Zn compounds, S for Na(HT3)
Procedure: Duodenum targeting (D) is accomplished by hand coating caps with Eudragit L100-55 (Acryl-Eze, water solvent) designed to dissolve in the duodenum at pH ca. 5.5. Stomach targeting (S) is by using uncoated gel caps.
The Full Width at Half Maximum (FWHM), where Width is measured along the time axis, and Half Maximum is ½Cmax, is a parameter used to evaluate the degree of extended release of drug absorption.

[3] = in vivo; cited from earlier work
[4] = pH 5.0 and above; cited from earlier work

In the case of `CC1(C)S[C@@H]2[C@H](NC(=O)[C@H](N)c3ccc(O)cc3)C(=O)N2[C@H]1C(=O)O` [Amoxicillin], the “pKa 1” value [1] is listed as 6.71, the “pKa 2” value [1] is listed as 9.41 and the “pKa of the carboxylic acid(s)” value [1] is listed as 6.71. For the same compound, the “pKa of the phenol” value ([1]; phenol group) was 9.41.

For `CO[C@@]1(NC(=O)C2SC(=C(C(N)=O)C(=O)O)S2)C(=O)N2C(C(=O)O)=C(CSc3nnnn3C)CS[C@@H]21` (stereo partly shown) [Cefotetan], the “pKa 1” value [1] is listed as “ca. 2”, the “pKa 2” value [1] is listed as “ca. 3” and the “pKa of the carboxylic acid(s)” value [1] is listed as 2-3.

In the case of `CN(C)[C@@H]1C(O)=C(C(N)=O)C(=O)[C@@]2(O)C(O)=C3C(=O)c4c(O)ccc(Cl)c4[C@@](C)(O)[C@H]3C[C@@H]12` [Chlortetracycline], the “pKa 1” value [1] is given as 3.33, the “pKa 2” value [1] is given as 7.55 and the “pKa 3” value [1] is given as 9.33.

For `CN1C[C@@H]2C[C@H]1CN2c1cc2c(cc1F)c(=O)c(C(=O)O)cn2C1CC1` [Danofloxacin], the “pKa 1” value [1] is listed as 6.07 and the “pKa 2” value [1] is listed as 8.56.

For `CN(C)[C@@H]1C(O)=C(C(N)=O)C(=O)[C@@]2(O)C(O)=C3C(=O)c4c(O)ccc(Cl)c4[C@@H](O)[C@H]3C[C@@H]12` [Demeclocycline], the “pKa 1” value [1] is given as 3.37, the “pKa 2” value [1] is given as 7.36 and the “pKa 3” value [1] is given as 9.44.

For `CN1CCN(c2cc3c(cc2F)c(=O)c(C(=O)O)cn3-c2ccc(F)cc2)CC1` [Difloxacin], the “pKa 1” value [1] is given as 5.66 and the “pKa 2” value [1] is given as 7.24.

For `C[C@H]1c2cccc(O)c2C(=O)C2=C(O)[C@]3(O)C(=O)C(C(N)=O)=C(O)[C@@H](N(C)C)[C@@H]3[C@@H](O)[C@@H]21` [Doxycycline], the “pKa 1” value [1] is listed as 3.02, the “pKa 2” value [1] is listed as 7.97 and the “pKa 3” value [1] is listed as 9.15.

For `CCn1cc(C(=O)O)c(=O)c2cc(F)c(N3CCNCC3)nc21` [Enoxacin], the “pKa 1” value [1] is given as 6.00 and the “pKa 2” value [1] is given as 8.50.

In the case of `CCN1CCN(c2cc3c(cc2F)c(=O)c(C(=O)O)cn3C2CC2)CC1` [Enrofloxacin], the “pKa 1” value [1] is listed as 3.85 and the “pKa 2” value [1] is listed as 6.19.

With `N[C@@H](Cc1cc(I)c(Oc2ccc(O)c(I)c2)c(I)c1)C(=O)O` [Example T3, triiodothyronine] the pKa (physchem) was 8.94.

In the case of `CN1CCN(c2c(F)cc3c(=O)c(C(=O)O)cn(CCF)c3c2F)CC1` [Fleroxacin], the “pKa 1” value [1] is listed as 5.46 and the “pKa 2” value [1] is listed as 8.00.

In the case of `CN1CCN(c2c(F)cc3c(=O)c(C(=O)O)cn4c3c2OCN4C)CC1` [Marbofloxacin], the “pKa 1” value [1] is given as 5.69 and the “pKa 2” value [1] is given as 8.02.

In the case of `C=C1c2c(Cl)ccc(O)c2C(=O)C2=C(O)[C@]3(O)C(=O)C(C(N)=O)=C(O)[C@@H](N(C)C)[C@@H]3[C@@H](O)[C@H]12` [Meclocycline], the “pKa 1” value [1] is given as 4.05, the “pKa 2” value [1] is given as 6.87 and the “pKa 3” value [1] is given as 9.59.

For `CN(Cc1cnc2nc(N)nc(N)c2n1)c1ccc(C(=O)N[C@@H](CCC(=O)O)C(=O)O)cc1` [Methotrexate], the “pKa 1” value [1] is listed as 4.8.

With `N[C@@H](Cc1cc(I)c(Oc2ccc(O)c(I)c2)c(I)c1)C(=O)[O-].[Na+]` [Na(HT3)] the Cmax average [2] was 0.45 ng/mL, the AUC average [2] was 3.71 ng·h/mL and the “FWHM average (Full Width at Half Maximum)” value [2] was 4.9 h.

For `CC1COc2c(N3CCN(C)CC3)c(F)cc3c(=O)c(C(=O)O)cn1c23` (stereo not shown) [Ofloxacin], the “pKa 1” value [1] is given as 6.22 and the “pKa 2” value [1] is given as 7.81.

For `CN(C)[C@@H]1C(O)=C(C(N)=O)C(=O)[C@@]2(O)C(O)=C3C(=O)c4c(O)cccc4[C@@](C)(O)[C@H]3[C@H](O)[C@@H]12` [Oxytetracycline], the “pKa 1” value [1] is given as 3.22, the “pKa 2” value [1] is given as 7.46 and the “pKa 3” value [1] is given as 8.94.

In the case of `CCn1cc(C(=O)O)c(=O)c2cnc(N3CCNCC3)nc21` [Pipemidic acid], the “pKa 1” value [1] is given as 5.42 and the “pKa 2” value [1] is given as 8.18.

For `O=C(O)c1cn(-c2ccc(F)cc2)c2cc(N3CCNCC3)c(F)cc2c1=O` [Sarafloxacin], the “pKa 1” value [1] is listed as 5.62 and the “pKa 2” value [1] is listed as 8.18.

For `CCCCC(=O)N(Cc1ccc(-c2ccccc2-c2nnn[nH]2)cc1)[C@H](C(=O)O)C(C)C` [Valsartan], the bioavailability [3] is given as “about 25%” and the in vitro dissolution [4] is given as “complete and rapid”.

For `N[C@@H](Cc1cc(I)c(Oc2ccc(O)c(I)c2)c(I)c1)C(=O)[O-].N[C@@H](Cc1cc(I)c(Oc2ccc(O)c(I)c2)c(I)c1)C(=O)[O-].[Zn+2]` [Zn(HT3)2, Bis-T3 Zinc], the “AUC with respect to simulated Cytomel” value ([2]; PO) was “comparable AUC”, the “Cmax with respect to simulated Cytomel” value ([2]; PO) was “blunted Cmax” and the Cmax average [2] was 0.24 ng/mL. For the same compound, the AUC average [2] was 3.45 ng·h/mL and the “FWHM average (Full Width at Half Maximum)” value [2] was 16.6 h.
